Results on five compounds are retold here after patent US20240189289A1, “INHIBITORS OF EPHB3 SIGNALING” (The Brigham and Women`s Hospital, Inc., priority 2021, published 2024).

“Also recorded” adds a separate entry of the source. A value given as a limit tells only on which side of the number the result lay.

The test system of data set [1] is astrocytes. Kind of data set: Mitochondrial ROS measurement (MitoSOX) in astrocytes. In kind it is cell-based, mouse. Particulars: Rotenone and Antimycin A given together. As for the experimental part: Mitochondrial ROS measurement. 50,000 astrocytes were seeded per well in 96-well black plates and rested for 2 days in complete medium, followed by activation or inhibitor pretreatment for 24 h. MitoSOX red (Thermo Fisher Scientific, #M36008) was used to stain for mitochondrial ROS for 10 min following the manual and the signal was detected on Infinite M1000 PRO Microplate Reader (Tecan). The fluorescent signal was normalized to cell number estimated using CyQUANT cell proliferation assay kit (Invitrogen, #C7026) first and then compared to control group for data analysis.

In data set [2] the test system is N2A neuronal cells. The experiment in a line: Neurotoxicity assay of astrocyte-conditioned medium (LDH release). In kind it is cell-based, mouse. As to conditions: ACM from astrocytes pre-treated with compound, LDH release after 24 h. As for the experimental part: (§1) Generation of astrocyte-conditioned medium (ACM). […] After 24 h, cells were extensively washed with 1×PBS, and incubated with fresh astrocyte complete medium for 48 h. Supernatants were spun down and kept at −80° C. until tested in migration and neurotoxicity assays.
Neurotoxicity Assay. N2A neuronal cells (#CCL-131, ATCC) were plated and pre-activated with 100 ng/mL mouse IFNγ (#485-MI-100; R&D Systems) for 24 h.
Thereafter, after extensive washing with 1×PBS, medium was replaced with ACM and after 24 h the supernatant was harvested for cytotoxicity evaluation by measuring LDH release with CytoTox 96 nonradioactive cytotoxicity assay kit (#G1780, Promega) following the manufacturer's protocol.

Data set [3] concerns splenic CD11b+ monocytes. The experiment in a line: Monocyte migration assay with astrocyte-conditioned medium. As to conditions: ACM from astrocytes pre-treated with compound. It is filed as cell-based, mouse. On the procedure: as §1
Monocyte Migration Assay. Monocytes were purified from spleens from C57BL/6J mice using CD11b Microbeads (#130-049-601, Miltenyi) following the manufacturer's instructions. 100,000 monocytes were seeded in the upper chamber of a 24-well cell culture transwell, with a 5 μm pore size (#3421, Thermo Fisher Scientific), containing 300 μL of astrocyte-conditioned medium (as detailed earlier) in the bottom chamber. After 3 h incubation at 37° C. in 5% CO2, cells were collected from the lower chamber after shaking and accutase solution incubation (#A6964, Sigma-Aldrich) and quantified by FACS.

Data set [4] relates to PI3K/AKT/mTOR signaling in astrocytes. Kind of data set: Western blot of PI3K/AKT/mTOR/NF-κB signaling in primary murine astrocytes. In kind it is cell-based, mouse. As to conditions: astrocytes activated 30 minutes with TNFα and IL-1β. On the procedure: Mouse primary astrocyte cultures. […] The cell suspension was then cultured at 37° C. in humidified 5% CO2 on poly-L-Lysine (#P4707, Sigma-Aldrich) pre-coated cell culture flasks. Medium was replaced every 3-5 days. The cells reached confluence after 7-10 days. Microglia were separated by shaking the glia culture at 225 rpm at 37° C. for at least 3 h and washing extensively with 1×PBS. Astrocytes were detached by mild trypsinization with Trypsin-EDTA (0.05%) at 37° C. and plated. […] Both cell types were then cultured separately for downstream procedures. […] Finally, microglia and astrocytes of each condition where magnetically separated as before and lysed for downstream gene expression analysis.
SDS-PAGE and Western blot. […] Membranes were blocked in 10% skimmed milk (#M0841, Lab Scientific) in TBS-T (#IBB-180-2L, Boston BioProducts). Primary antibodies were incubated ON at 4° C. and secondary 30 minutes at RT.
HRP-conjugated blots were developed using the KwikQuant imaging system and KwikQuant western blot detection kit (#R1004 Kindle Biosciences).
(In general: In western blotting, separated proteins are transferred to a membrane and probed.)

For data set [5], the target named is EphA4 (Homo sapiens, UniProt P54764). Kind of data set: Eph receptor kinase activity assay (radiometric), EphA4. In kind it is biochemical.
Chain of EphA4 (P54764 20-986): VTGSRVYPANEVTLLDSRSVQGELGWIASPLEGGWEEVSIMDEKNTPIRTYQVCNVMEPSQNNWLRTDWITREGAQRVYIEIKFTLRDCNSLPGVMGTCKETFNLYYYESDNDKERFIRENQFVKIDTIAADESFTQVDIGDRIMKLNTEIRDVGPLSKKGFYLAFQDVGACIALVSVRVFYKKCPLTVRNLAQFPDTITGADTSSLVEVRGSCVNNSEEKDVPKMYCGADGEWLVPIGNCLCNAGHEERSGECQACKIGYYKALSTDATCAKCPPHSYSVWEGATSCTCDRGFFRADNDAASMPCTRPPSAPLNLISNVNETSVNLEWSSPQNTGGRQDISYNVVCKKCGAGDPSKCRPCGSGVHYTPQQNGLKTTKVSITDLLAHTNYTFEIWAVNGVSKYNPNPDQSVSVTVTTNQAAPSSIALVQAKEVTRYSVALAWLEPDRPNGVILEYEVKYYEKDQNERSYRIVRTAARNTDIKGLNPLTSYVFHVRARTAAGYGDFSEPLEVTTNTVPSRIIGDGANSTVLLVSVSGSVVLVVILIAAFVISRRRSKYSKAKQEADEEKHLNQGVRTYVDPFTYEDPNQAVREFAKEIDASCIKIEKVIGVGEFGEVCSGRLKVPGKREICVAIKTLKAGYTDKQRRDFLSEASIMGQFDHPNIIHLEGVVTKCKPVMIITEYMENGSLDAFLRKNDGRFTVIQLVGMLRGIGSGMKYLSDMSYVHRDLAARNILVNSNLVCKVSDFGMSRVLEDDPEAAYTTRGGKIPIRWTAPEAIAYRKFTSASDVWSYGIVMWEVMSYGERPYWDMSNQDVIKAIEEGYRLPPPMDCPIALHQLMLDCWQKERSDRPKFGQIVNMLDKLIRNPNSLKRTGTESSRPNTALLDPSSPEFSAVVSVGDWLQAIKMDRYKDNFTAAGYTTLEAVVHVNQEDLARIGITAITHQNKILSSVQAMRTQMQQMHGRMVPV
For data set [6], the target named is T1, EphB3 (Homo sapiens, UniProt P54753).
T1 sequence (P54753 34-998): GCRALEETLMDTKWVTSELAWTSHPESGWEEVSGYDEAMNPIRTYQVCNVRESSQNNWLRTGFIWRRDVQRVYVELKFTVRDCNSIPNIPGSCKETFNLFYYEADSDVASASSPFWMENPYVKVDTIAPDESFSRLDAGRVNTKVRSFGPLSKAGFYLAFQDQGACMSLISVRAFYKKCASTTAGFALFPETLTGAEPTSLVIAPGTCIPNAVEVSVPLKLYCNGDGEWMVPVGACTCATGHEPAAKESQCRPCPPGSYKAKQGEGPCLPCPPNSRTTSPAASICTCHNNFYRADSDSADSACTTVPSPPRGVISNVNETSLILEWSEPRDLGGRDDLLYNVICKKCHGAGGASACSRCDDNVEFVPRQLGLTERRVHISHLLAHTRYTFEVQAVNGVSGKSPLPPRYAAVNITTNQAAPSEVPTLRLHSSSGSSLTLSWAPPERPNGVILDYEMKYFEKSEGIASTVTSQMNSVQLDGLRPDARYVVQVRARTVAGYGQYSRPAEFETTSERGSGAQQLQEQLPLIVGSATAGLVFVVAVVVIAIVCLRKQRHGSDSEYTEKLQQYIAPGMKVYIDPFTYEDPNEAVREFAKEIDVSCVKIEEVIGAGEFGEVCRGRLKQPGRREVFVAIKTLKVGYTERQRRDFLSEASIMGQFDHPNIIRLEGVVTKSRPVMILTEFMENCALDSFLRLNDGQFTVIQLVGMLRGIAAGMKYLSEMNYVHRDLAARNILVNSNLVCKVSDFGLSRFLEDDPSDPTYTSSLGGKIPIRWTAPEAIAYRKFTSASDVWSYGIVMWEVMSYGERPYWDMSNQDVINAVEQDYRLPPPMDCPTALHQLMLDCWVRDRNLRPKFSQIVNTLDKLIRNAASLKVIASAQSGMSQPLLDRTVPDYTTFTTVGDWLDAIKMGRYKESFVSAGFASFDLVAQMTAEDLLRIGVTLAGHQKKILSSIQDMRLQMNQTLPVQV
The experiment in a line: EphB3 radiometric kinase activity assay (33P ATP filter binding). It is filed as biochemical. Particulars: for remaining activity at 0.01 µM: 10 nM compound, read-out: EphB3 % act 10 nM; for remaining activity at 0.1 µM: 100 nM compound, read-out: EphB3 % act 100 nM; for remaining activity at 0.3 µM: 300 nM compound, read-out: EphB3 % act 300 nM. On the procedure:
EphB3 radiometric kinase activity assay. To study the EphB3 kinase activity, a radioactive filter binding assay using 33P ATP was performed as described at the […] International Centre for Kinase profiling. […] The mix was harvested onto P81 filter plates and counts were read on a Topcount NXT.

In data set [7] the target is T2, EphB4 (Homo sapiens, UniProt P54760).
T2 sequence (P54760 16-987): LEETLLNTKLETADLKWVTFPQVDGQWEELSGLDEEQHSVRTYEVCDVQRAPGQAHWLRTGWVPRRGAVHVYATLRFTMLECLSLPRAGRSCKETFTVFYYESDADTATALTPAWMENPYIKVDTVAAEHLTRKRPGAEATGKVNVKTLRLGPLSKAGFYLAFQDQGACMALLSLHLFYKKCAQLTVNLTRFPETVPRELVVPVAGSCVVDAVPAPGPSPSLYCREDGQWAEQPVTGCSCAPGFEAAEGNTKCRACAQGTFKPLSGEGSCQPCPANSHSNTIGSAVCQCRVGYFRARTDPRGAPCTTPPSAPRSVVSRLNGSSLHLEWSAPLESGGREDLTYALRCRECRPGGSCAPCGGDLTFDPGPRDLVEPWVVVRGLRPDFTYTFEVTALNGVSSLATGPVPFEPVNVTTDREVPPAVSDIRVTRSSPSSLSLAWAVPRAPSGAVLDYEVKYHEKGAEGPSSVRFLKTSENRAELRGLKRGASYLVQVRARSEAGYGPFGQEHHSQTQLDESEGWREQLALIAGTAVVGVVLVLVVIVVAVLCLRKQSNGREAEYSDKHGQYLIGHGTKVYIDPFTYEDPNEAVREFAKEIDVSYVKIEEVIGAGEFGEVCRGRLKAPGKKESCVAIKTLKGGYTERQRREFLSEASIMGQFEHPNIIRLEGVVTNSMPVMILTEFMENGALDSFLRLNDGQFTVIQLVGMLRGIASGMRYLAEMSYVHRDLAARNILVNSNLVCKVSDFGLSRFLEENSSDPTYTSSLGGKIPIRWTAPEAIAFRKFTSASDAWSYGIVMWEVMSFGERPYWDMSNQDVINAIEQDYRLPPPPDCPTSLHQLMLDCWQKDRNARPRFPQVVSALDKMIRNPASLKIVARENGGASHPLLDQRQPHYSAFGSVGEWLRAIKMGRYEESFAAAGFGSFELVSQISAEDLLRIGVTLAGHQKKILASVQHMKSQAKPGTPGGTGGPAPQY
The experiment in a line: Eph receptor kinase activity assay (radiometric), EphB4. Particulars: for remaining activity at 0.01 µM: 10 nM compound, read-out: EphB4 % act 10 nM; for remaining activity at 0.1 µM: 100 nM compound, read-out: EphB4 % act 100 nM; for remaining activity at 0.3 µM: 300 nM compound, read-out: EphB4 % act 300 nM. In kind it is biochemical.

The nature of data set [8]: Aqueous solubility. As to conditions: aqueous medium at pH 7.4 (buffer not specified), pH 7.4, aqueous buffer; read-out: aqueous solubility. In kind it is physicochemical.
Data set [9] in a line: MTT and ATP-viability assays. Particulars: 30 μM. In kind it is cell-based.
In data set [10] the target is EphA2 (Homo sapiens, UniProt P29317). The experiment in a line: Eph receptor kinase activity assay (radiometric), EphA2. In kind it is biochemical.
Chain of EphA2 (P29317 24-976): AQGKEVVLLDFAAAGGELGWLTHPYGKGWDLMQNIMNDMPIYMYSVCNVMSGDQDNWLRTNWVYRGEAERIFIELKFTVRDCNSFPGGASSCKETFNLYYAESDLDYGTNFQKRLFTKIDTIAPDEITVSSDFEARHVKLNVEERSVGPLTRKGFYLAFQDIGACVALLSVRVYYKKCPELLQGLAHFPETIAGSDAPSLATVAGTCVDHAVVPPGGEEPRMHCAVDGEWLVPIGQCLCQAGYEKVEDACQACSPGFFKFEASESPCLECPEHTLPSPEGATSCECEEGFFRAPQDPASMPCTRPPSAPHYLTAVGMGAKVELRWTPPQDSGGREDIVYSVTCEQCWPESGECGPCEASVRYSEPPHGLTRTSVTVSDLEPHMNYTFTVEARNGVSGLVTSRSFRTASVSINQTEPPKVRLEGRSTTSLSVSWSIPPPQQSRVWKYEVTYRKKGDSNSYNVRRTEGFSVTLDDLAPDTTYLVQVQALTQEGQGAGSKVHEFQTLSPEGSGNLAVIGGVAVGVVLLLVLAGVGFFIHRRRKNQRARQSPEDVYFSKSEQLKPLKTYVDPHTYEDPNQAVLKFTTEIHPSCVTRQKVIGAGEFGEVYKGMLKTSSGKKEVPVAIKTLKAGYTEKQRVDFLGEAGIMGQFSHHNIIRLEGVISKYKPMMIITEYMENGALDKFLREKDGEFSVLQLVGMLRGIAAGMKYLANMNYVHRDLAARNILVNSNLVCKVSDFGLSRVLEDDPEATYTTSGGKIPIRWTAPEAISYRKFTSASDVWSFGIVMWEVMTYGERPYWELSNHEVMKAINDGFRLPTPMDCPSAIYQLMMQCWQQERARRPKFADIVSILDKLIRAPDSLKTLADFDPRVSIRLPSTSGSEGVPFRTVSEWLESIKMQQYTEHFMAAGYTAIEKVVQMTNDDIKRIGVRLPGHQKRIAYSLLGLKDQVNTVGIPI

By solubility is commonly meant how much of the substance goes into solution per volume.

`C=C(C)[C@H]1Cc2c(ccc3c2O[C@@H]2COc4cc(OC)c(OC)cc4[C@@H]2C3=O)O1` [Rotenone, reference compound]: the “mitochondrial ROS levels” value in [1] is recorded as “increases mitochondrial ROS levels”.

With `O=C(CCl)Nc1ccc2c(Nc3cc(O)ccc3Cl)ncnc2c1` [C9], in data set [2], the ACM neurotoxic activity entry was “decrease in neurotoxicity; also recorded: reduced ACM neurotoxic”. Besides, in data set [3], the ACM chemoattractant activity result was “reduced ACM neurotoxic and chemoattractant activity”.

Regarding `FC(F)c1nc2ccccc2n1-c1nc(N2CCOCC2)nc(N2CCOCC2)n1` [ZSTK474, reference compound], the “phosphorylation of AKT” value in data set [4] was “suppressed”.

In the case of `O=C(Nc1ccccc1Cl)c1cnc2ccc(C3CCNCC3)cn12` [A-38, N-(2-chlorophenyl)-6-(piperidin-4-yl)imidazo[1,2-a]pyridine-3-carboxamide], in [5] (10 nM compound), the “EphA4 % act 10 nM” value was determined as 32%. For the same compound, the “EphA4 % act 100 nM” value in data set [5] (100 nM compound) is recorded as 14%. The “EphA4 % act 300 nM” value in data set [5] (300 nM compound) is listed as 9%. Besides, in data set [6], the remaining activity at 0.01 µM was determined as 37%, the remaining activity at 0.1 µM is 14% and the remaining activity at 0.3 µM amounted to 7%. Moreover, in data set [7], the remaining activity at 0.01 µM is 68%, the remaining activity at 0.1 µM turned out to be 9% and the remaining activity at 0.3 µM was found to be 3%. Besides, in data set [8], the solubility was greater than 10000 µg/mL. In addition, the “cytotoxicity in MTT and ATP-viability assays” value in data set [9] is reported as “no cytotoxicity”.

Consider `O=C(Nc1ccccc1Cl)c1cnc2ccc(-c3cccnc3)cn12` [compound 113, N-(2-Chlorophenyl)-6-(pyridin-3-yl)imidazo[1,2-a]pyridine-3-carboxamide], for which the remaining activity at 0.01 µM in data set [10] (10 nM compound, read-out: EphA2 % act 10 nM) was 52%; in [5] (10 nM compound, read-out: EphA4 % act 10 nM), 53%; in [6], 49%; in [7], 30%. The remaining activity at 0.1 µM was 29% in [10] (100 nM compound, read-out: EphA2 % act 100 nM); 26% in data set [5] (100 nM compound, read-out: EphA4 % act 100 nM); 16% in data set [6]; 7% in data set [7]. Further, the remaining activity at 0.3 µM came to 17% in data set [10] (300 nM compound, read-out: EphA2 % act 300 nM); 19% in data set [5] (300 nM compound, read-out: EphA4 % act 300 nM); 11% in data set [6]; 4% in [7].
